From publication PMC9923724, “Half sandwich-type osmium, ruthenium, iridium and rhodium complexes with bidentate glycosyl heterocyclic ligands induce cytostasis in platinum-resistant ovarian cancer cells and bacteriostasis in Gram-positive multiresistant bacteria” (Frontiers in Chemistry, 2023)
“And” between values parts separate entries of the source, which are not always exact repeats. Equal entries are not always repeated.

Assays:
[1] = tested on: Staphylococcus aureus (ATCC29213); experiment: Broth microdilution MIC, Staphylococcus aureus reference strain; type: cell-based; conditions: for MIC, Reference S. aureus: Staphylococcus aureus ATCC29213, 24 h; for MIC (μM) (S. aureus), Figure 11: reference strain ATCC29213
Experimental: (§1) The MIC values of the complexes were determined against the reference strains of S. aureus (ATCC29213) and E. faecalis. (ATCC29212) and against clinical VRE and MRSA isolates by microdilution assays (repeated at least twice in duplicates) as described in Materials and Methods. The numbers indicate how many isolates were susceptible to the compound out of those tested; i.e., 1/6 stands for 1 isolate was susceptible out of 6 tested. […] Cells were harvested and lysed. Cellular proteins was separated on a 10% SDS-PAGE gel and were blotted. Blots were probed with 4HNE antibody (top blot), the lower blot was stained with amido black. Arrows point at band of interest. Experiments were repeated three times and a representative blot is shown. On the blots brightness and contrast were adjusted. […] Each was matched to a substance and strain by its position over the x-axis categories. / Ir-7: ND and 0/3 (left plot) and ND and 0/6 (right plot) were matched to E. faecalis/VRE and S. aureus/MRSA by position only.
(§2) We used the reference strains of Staphylococcus aureus (ATCC29213), and Enterococcus faecalis (ATCC29212) that were purchased from ATCC (Manassas, VA, United States).
(§3) Microdilution experiments were performed according to the standards of EUCAST ([EUCAST, 2021]). […] The inoculated plates were incubated for 24 h at 37°C then were assessed visually. […] All experiments were performed at least twice in duplicates.

[2] = Determination of the distribution coefficients (logD); type: physicochemical; conditions: distribution coefficient
[3] = tested on: A2780 ovarian cancer cells; experiment: SRB assay (cytostasis, 48 h) on A2780 cells; type: cell-based; conditions: 48 h treatment
Experimental: (§4) First, we assessed a set of osmium complexes (similar to Ia [[Kacsir et al., 2022]) in Figure 1] and their sugar-derived ligands, in which the benzoyl protective groups on the carbohydrate moiety were replaced by aliphatic acyl groups of different chain length (straight chain C3-C7–CO). Osmium was selected as a central ion, since osmium complexes had the best biological activity in our previous studies ([Balázs et al., 2022]; [Kacsir et al., 2022]). These compounds were tested on A2780 ovarian cancer cells for toxicity and cytostasis. The therapy of ovarian cancer is centered around platinum compounds ([Brown et al., 2019]; [Sipos et al., 2021]), therefore, it was logical to use a cellular model of ovarian cancer for the initial testing of the compounds. Toxicity was assessed using the MTT assay that measures the activity of mitochondrial complex I. We chose 4 h long treatment as in an MTT assay this time point is suitable to detect rapid, direct toxicity. Cytostasis was assessed after 48 h of treatment using the SRB assay that assesses protein content that corresponds to cell count. The characteristics of the compounds are detailed in Table 2.
(§5) 3 × 10^3 A2780 cells, were plated to 96 well plates. Cells were treated with the compounds in the concentrations indicated for either 4 h for an MTT assay or for 48 h for an SRB assay. Data is represented as average ± SD, from three biological replicates; individual assays were performed in duplicates. Values were normalized for vehicle treated cells, absorbance for vehicle treated cells equals to 1. […] Except for the Os-6 complex, Two-way ANOVA test was performed and all values were compared with each other (Tukey’s post hoc test). […] Non-linear regression was performed on the data.
(§6) 3 × 10^3 A2780 cells, 2 × 10^3 ID8 cells and 4 × 10^3 primary fibroblasts were plated to 96 well plates. Cells were treated with the compounds in the concentrations indicated for either 4 h for an MTT assay or for 48 h for an SRB assay. Data is represented as average ± SD, from three biological replicates; individual assays were performed in duplicates. Values were normalized for vehicle treated cells, absorbance for vehicle treated cells equals to 1. Statistical significance was assessed using two-way ANOVA test comparing the free ligand and each complex as a complex-ligand pair. Before the test normality was assessed using the D’Agostino-Pearson test. The ID8 SRB Ir-7+L-7 dataset had lognormal distribution. […] All other datasets had normal distribution. For better visibility the p values are presented in an excel sheet at https://figshare.com/s/2c942a812caea8869a67. Non-linear regression was performed on the A2780 SRB and the ID8 SRB datasets.
The assay was performed similar to ([Kovács et al., 2019]). Cells were seeded in 96 well plates the day before the assay. Cells were treated with the compounds for 48 h. Cells were fixed with 10% trichloroacetic acid (TCA). Fixed cells were washed in distilled water 3 times followed by staining with SRB (0.4 m/V% dissolved in 1% acetic acid) for 10 min. Stained cells were washed in 1% acetic acid 5 times; acetic acid was removed and cells were left to dry. Protein-bound SRB was released by adding 100 µl 10 mM Tris base. Plates were measured in a plate photometer (Thermo Scientific Multiscan GO spectrophotometer, Waltham, MA, United States) at 540 nm. On each plate wells were designed to contain vehicle-treated cells. In calculations the readings for these wells was considered as 1 and all readings were expressed relative to these values.
Statistical analysis was performed using 8.0.1 version of Graphpad Prism. Values were tested for normal distribution using the D’Agostino and Pearson normality test. When necessary, values were log normalized or were normalized using the Box-Cox normalization method ([Box and Cox, 1964]) as indicated in the figure captions. […]

[4] = tested on: vancomycin-resistant Enterococcus (VRE) clinical isolates; experiment: Broth microdilution MIC, clinical VRE isolates; type: cell-based, E. faecium; conditions: for MIC against clinical VRE isolates (as a group): 3 clinical VRE isolates; for VRE isolates susceptible out of those tested: 3 isolates tested, susceptible = MIC up to 40 µM; for MIC, VRE 25 051: clinical isolate 25 051, nephrostoma; for MIC, VRE 25 051 / MIC, VRE 25 498 / MIC, VRE 27 085: 2018; for MIC, VRE 25 498: clinical isolate 25 498, rectal swab; for MIC, VRE 27 085: clinical isolate 27 085, wound
Experimental: as §1
(§7) We used a set of clinical isloates of S. aureus and E. faecium that were collected at the Medical Center of the University of Debrecen (Hungary) between 01. 01. 2018.—31. 12. 2020. The clinical isolates were identified using a Microflex MALDI-TOF mass spectrometer (Bruker, Billerica, MA, United States). Antibiotic susceptibility of the isolates was tested following the European Committee on Antimicrobial Susceptibility Testing ([EUCAST, 2021]) guidelines valid at the time of collection.
as §3

[5] = tested on: A2780 ovarian cancer cells; experiment: MTT reduction assay (rapid toxicity, 4 h) on A2780 cells; type: cell-based; conditions: 4 h treatment
Experimental: as §4, §5, §6
MTT reduction assay measures the activity of mitochondrial complex I and can be used to detect toxicity ([Virág et al., 1998]; [Henslee et al., 2016]). The assay was performed similar to ([Bakondi et al., 2003]). Briefly, cells were plated in 96 well plates the day before the assay. Cells were treated with the compounds for 4 h, then MTT was added in 0.5 mg/ml final concentration and cells were incubated at 37°C in a cell incubator. Culture media was removed and the reduced MTT dye was dissolved in dimethyl-sulfoxide (DMSO) and plates were measured in a plate photometer (Thermo Scientific Multiscan GO spectrophotometer, Waltham, MA, United States) at 540 nm. On each plate wells were designed to contain untreated/vehicle-treated cells. In calculations the readings for these wells was considered as 1 and all readings were expressed relative to these values.

[6] = tested on: Enterococcus faecalis (ATCC29212); experiment: Broth microdilution MIC, Enterococcus faecalis reference strain; type: cell-based; conditions: for MIC, Reference E. faecalis: Enterococcus faecalis ATCC29212, 24 h; for MIC (μM) (E. faecalis), Figure 11: reference strain ATCC29212, printed in the picture
Experimental: as §1, §2, §3

[7] = tested on: methicillin-resistant Staphylococcus aureus (MRSA) clinical isolates; experiment: Broth microdilution MIC, clinical MRSA isolates; type: cell-based; conditions: for MIC against clinical MRSA isolates (as a group): 6 clinical MRSA isolates; for MRSA isolates susceptible out of those tested: 6 isolates tested, susceptible = MIC up to 40 µM; for MIC, MRSA 20 426: clinical isolate 20 426, blood, 2020; for MIC, MRSA 24 035: clinical isolate 24 035, wound; for MIC, MRSA 24 035 / MIC, MRSA 24 268 / MIC, MRSA 24 272 / MIC, MRSA 24 328 / MIC, MRSA 24 408: 2018; for MIC, MRSA 24 268: clinical isolate 24 268, throat; for MIC, MRSA 24 272: clinical isolate 24 272, throat; for MIC, MRSA 24 328: clinical isolate 24 328, throat; for MIC, MRSA 24 408: clinical isolate 24 408, bronchial
Experimental: as §1, §7, §3

| Structure (SMILES) | MIC, Reference S. aureus [1] | MIC (μM) (S. aureus), Figure 11 [1] | LogD [2] | A2780 SRB Max. (maximal inhibition) [3] | MIC against clinical VRE isolates (as a group) [4] | VRE isolates susceptible out of those tested [4] | MIC, VRE 25 051 [4] | MIC, VRE 25 498 [4] | MIC, VRE 27 085 [4] | A2780 MTT Max. (maximal inhibition) [5] | MIC, Reference E. faecalis [6] | MIC (μM) (E. faecalis), Figure 11 [6] | MRSA isolates susceptible out of those tested [7] | MIC, MRSA 20 426 [7] | MIC, MRSA 24 035 [7] | MIC, MRSA 24 268 [7] | MIC, MRSA 24 272 [7] | MIC, MRSA 24 328 [7] | MIC, MRSA 24 408 [7] | IC50 [3] | further results |
| --- | --- | --- | --- | --- | --- | --- | --- | --- | --- | --- | --- | --- | --- | --- | --- | --- | --- | --- | --- | --- | --- |
| CCCCCCCC(=O)OCC1OC(n2cc(-c3ccccn3)nn2)C(OC(=O)CCCCCCC)C(OC(=O)CCCCCCC)C1OC(=O)CCCCCCC.Cc1ccc(C(C)C)cc1.F[P-](F)(F)(F)(F)F.[Cl][Os+] (mixture of isomers) [Os-6] | 40< µM | ND (ND—not detected, MIC>40 µM) | 2.8 | 88.4% | > 40 µM | 0/3 | 40< µM | 40< µM | 40< µM | 76.9% | 40< µM | ND (ND—not detected, MIC>40 µM) | 0/6 | 40< µM | 40< µM | 40< µM | 40< µM | 40< µM | 40< µM | – | IC50 [5]: 16.5 µM; MIC against clinical MRSA isolates (as a group) [7]: > 40 µM |
| CCCC(=O)OCC1OC(n2cc(-c3ccccn3)nn2)C(OC(=O)CCC)C(OC(=O)CCC)C1OC(=O)CCC.Cc1ccc(C(C)C)cc1.F[P-](F)(F)(F)(F)F.[Cl][Os+] (mixture of isomers) [Os-2] | 2.5—10 µM and 2.5 µM | – | 2.5 | >90% | – | 3/3 | 10 µM | 10 µM | 10 µM | 88% | – | – | 6/6 | 2.5 µM | 2.5 µM | 5 µM | 5 µM | 2.5 µM | 5 µM | 6.23 µM | – |
| CCCCC(=O)OCC1OC(n2cc(-c3ccccn3)nn2)C(OC(=O)CCCC)C(OC(=O)CCCC)C1OC(=O)CCCC.Cc1ccc(C(C)C)cc1.F[P-](F)(F)(F)(F)F.[Cl][Os+] (mixture of isomers) [Os-3] | 2.5—10 µM and 2.5 µM | – | 2.6 | >90% | – | 3/3 | 5 µM | 5 µM | 5 µM | 84.4% | 2.5—10 µM and 5 µM | – | 6/6 | 5 µM | 2.5 µM | 2.5 µM | 5 µM | 2.5 µM | 5 µM | 2.1 µM | – |
| CCCCCC(=O)OCC1OC(n2cc(-c3ccccn3)nn2)C(OC(=O)CCCCC)C(OC(=O)CCCCC)C1OC(=O)CCCCC.Cc1ccc(C(C)C)cc1.F[P-](F)(F)(F)(F)F.[Cl][Os+] (mixture of isomers) [Os-4] | 40< µM | ND (ND—not detected, MIC>40 µM) | 2.7 | >90% | – | 3/3 | 40 µM | 40 µM | 40 µM | 84.4% | 40 µM | – | 1/6 | 40< µM | 40< µM | 40< µM | 40< µM | 40< µM | 40 µM | 3.87 µM | – |
| CCCCCCC(=O)OCC1OC(n2cc(-c3ccccn3)nn2)C(OC(=O)CCCCCC)C(OC(=O)CCCCCC)C1OC(=O)CCCCCC.Cc1ccc(C(C)C)cc1.F[P-](F)(F)(F)(F)F.[Cl][Os+] (mixture of isomers) [Os-5] | 40< µM | ND (ND—not detected, MIC>40 µM) | 2.7 | >90% | > 40 µM | 0/3 | 40< µM | 40< µM | 40< µM | 83.4% | 40< µM | ND (ND—not detected, MIC>40 µM) | 0/6 | 40< µM | 40< µM | 40< µM | 40< µM | 40< µM | 40< µM | 15.9 µM | MIC against clinical MRSA isolates (as a group) [7]: > 40 µM |
